These results are taken from patent publication US20240165116A1, “ROCK2 INHIBITOR FOR THE TREATMENT OF VIRAL INFECTION” (Graviton Bioscience B.V., priority 2021, published 2024).

Assay [1] relates to SARS-CoV-2 (2019-nCoV/USA-WA1/2020 strain). Nature of the assay: In vitro SARS-CoV-2 prevention model: viral RNA in supernatant by qPCR. Format: cell-based. Particulars: Severe acute respiratory syndrome coronavirus 2; Calu-3 cells treated 2 h at 37° C., challenged with 10^2 PFU SARS-CoV-2 for 6 h, qPCR of supernatant at 48 h; calculated from best-fit values; read-out: EC50 (SARS-CoV-2 in supernatant, classical dose-response curve). The method, then: FIG. 2. Efficacy: SARS-CoV-2 CPN in Supernatant. Immortalized human airway epithelial cells (Calu-3) were treated with the listed concentrations of the Formula XII compound for 2 h at 37° C. followed by challenge with SARS-CoV-2 for 6 h. After washing, the cells were maintained for 48 hours and viral infection was analyzed by qPCR of the supernatant. Each data point represents the mean of three replicates.
FIG. 3. Efficacy: Classical Dose-Response Curve. This figure provides the dose-response curve for the experiment described in Example 1 and FIG. 2.
A 50 mM stock solution of (6-(4-((4-(1H-pyrazol-4-yl)phenyl)amino)pyrimidin-2-yl)-1-methyl-1H-indol-2-yl)(3,3-difluoroazetidin-1-yl)methanone (Formula XII) in DMSO was diluted using PBS to Formula XII concentrations of 100 μM, 10 μM, 1 μM, 0.3 μM, 0.1 μM, and 0.03 μM. About 30,000 immortalized human airway epithelial cells (Calu-3) were grown to about 100,000 cells per well in a 96-well format. […]
Viral infection was analyzed by qPCR (qRT-PCR). […] Viral or host RNA levels in the supernatant were determined using the TaqPath™ 1-Step RT-qPCR Master Mix (Thermo Fisher) on CFX Connect Real-Time System (Bio-Rad) instrument using the following primers: Fwd: 5′-[…]-3; Rev: 5′-[…]-3′).
Datasets were analyzed and plotted in GraphPad Prism (version 9.0.2). […]

Assay [2] shares this test system. Nature of the assay: Viral load in lung lysates of SARS-CoV-2 challenged human ACE2 transgenic mice. Format: in vivo. Particulars: 300 mg/kg daily via oral gavage in 0.5% CMC-Na; initial viral loads 100, 1000, 10,000 pfu; compared with vehicle and Remdesivir (25 mg/kg subcutaneously). The method, then: FIGS. 6A, 6B, and 6C. Efficacy: Viral Load in Lung Lysates. […] Shown are viral copies/mg of lungs for initial viral loads of 100 pfu SARS-CoV2 (FIG. 6A), 1000 pfu SARS-CoV2 (FIG. 6B), and 10,000 pfu SARS-CoV2 (FIG. 6C). Groups from left to right: Vehicle, Formula XII (300 mg/kg), Remdesivir (RDV). Inserts: Formula XII (300 mg/kg) (left), Remdesivir (RDV) (right).
Human ACE2 transgenic mice from Jackson Laboratories (n=5 per group) were challenged at t=0 with SARS-CoV-2 at an initial viral load of 100 PFU, 1,000, or 10,000 pfu of 2019-nCoV/USA-WA1/2020 strain. This strain was isolated from an oropharyngeal swab from a patient with a respiratory illness who developed the clinical disease (COVID-19) in January 2020 in Washington, US (BEI Resources, NR-52281). […] The infected mice were dosed daily via oral gavage with (1) 0.5% sodium carboxymethyl cellulose (CMC-Na) (negative control), (2) 300 mg/kg Formula XII in 0.5% CMC-Na (test group), or (3) Remdesivir (RDV). RDV, an anti-viral reagent that acts as a nucleoside analog and inhibits the RNA-dependent RNA polymerase (RdRp) of coronaviruses including SARS-CoV-2, was used a positive control. […] The animals were monitored daily. […] The viral load in the lung was determined by qPCR detecting viral RNA in lung lysates.

Entries after “also recorded” stand apart in the source; their conditions may differ.

One may read the EC50 as the concentration that produces a half-maximal response. As to `Cn1c(C(=O)N2CC(F)(F)C2)cc2ccc(-c3nccc(Nc4ccc(-c5cn[nH]c5)cc4)n3)cc21` [Formula XII, (6-(4-((4-(1H-pyrazol-4-yl)phenyl)amino)pyrimidin-2-yl)-1-methyl-1H-indol-2-yl)(3,3-difluoroazetidin-1-yl)methanone], the EC50 in assay [1] is 124 nM. The “Viral load in the lung (viral copies/mg of lungs, qPCR of lung lysates)” value in assay [2] is “significantly reduced viral load as compared to both the negative as well as the positive control; also recorded: reduces the spread of SARS-CoV2 in the lungs of mice in vivo”.
